What was measured:
RhlR [1] = target: T1, RhlR (Pseudomonas aeruginosa, UniProt P54292); experiment: E. coli RhlR reporter; format: cell-based; details: E. coli RhlR reporter strain; for EC50: dose-response; for Max. RhlR Activation: efficacy
RhlR [2] = target: T1, RhlR; experiment: P. aeruginosa PAO-JP2 RhlR reporter; format: cell-based; details: for EC50 / Max. RhlR Activation: P. aeruginosa RhlR reporter strain; for EC50: dose-response; for Max. RhlR Activation: efficacy

T1 sequence (P54292 whole entry): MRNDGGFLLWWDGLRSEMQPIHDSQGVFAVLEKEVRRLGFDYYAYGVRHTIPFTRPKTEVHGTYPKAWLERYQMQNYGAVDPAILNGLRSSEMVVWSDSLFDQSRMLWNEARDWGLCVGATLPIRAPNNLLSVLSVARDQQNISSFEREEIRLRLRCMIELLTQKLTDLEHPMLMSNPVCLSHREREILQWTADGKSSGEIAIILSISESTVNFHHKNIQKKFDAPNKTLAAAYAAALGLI

Compound | EC50 (RhlR [1]) [µM] | Max. RhlR Activation (RhlR [1]) [%] | EC50 (RhlR [2]) [µM] | Max. RhlR Activation (RhlR [2]) [%] | fold lower potency in P. aeruginosa relative to E. coli (RhlR [2]; ratio of EC50 values in the two RhlR reporters)
CCCC(=O)N[C@H]1CCOC1=O [BHL, N-butyryl HL] | 8.95 | 100 | 8.08 | 100 | 
O=C(NC1CCOC1=O)C1CCC1 (centres unmarked) [Compound 17, cyclobutyl HL] | 1.78 | 100 | 1.41 | 96 | 
CC(C)CC(=O)NC1CCSC1=O (centres unmarked) [Compound 37, isovaryl homocysteine thiolactone] | 0.463 | 93 | 2.58 | 91 | ~ 5 fold
CC(C)CC(=O)N[C@H]1CCOC1=O [Compound 7, isovaleryl HL] | 1.02 | 110 | 1.42 | 94 | 

From article PMC6402343 (ACS chemical biology, 2019)
